# Earlier results as cited in patent US20160347782A1, “4-methylcatechol Derivatives and Uses Thereof” (THANARES GMBH, priority 2011, published 2016).
# Legend:
# [1] = system: melanoma cells
# [2] = system: normal human epidermal melanocytes
# [3] = system: liver cells; details: liver cells in vitro; in the μmol range
Growth of normal human epidermal melanocytes [2],Compound,Proliferation of melanoma cells [1],Inhibition of hepatocellular cholesterol synthesis [3]
without impairing,"Cc1ccc(O)c(O)c1 [Example 4-MC, 4-Methylcatechol]",inhibits,inhibits
–,O=c1c(O)c(-c2ccc(O)c(O)c2)oc2cc(O)cc(O)c12 [quercetin],–,inhibits
